Measurements as given in patent publication EP0713875B1, “Sulfonamides” (F. Hoffmann-La Roche AG, priority 1994, dated 1996).
pEC50, pIC50: −log10 of the molar value.

Key:
[1] = molecular target: T1, humanen ETA-Rezeptor (Homo sapiens, UniProt P25101); experiment: Inhibition of endothelin binding at the recombinant ETA receptor (125I-endothelin, membranes of baculovirus-infected insect cells); conditions: concentration required to inhibit 50% of the specific binding of 125I-Endothelin; incubation 2 h at 20°C or 24 h at 4°C
T1 construct: made in house; host or cells: insect cells (baculovirus expression system); membrane preparation
T1 sequence (P25101 21-427): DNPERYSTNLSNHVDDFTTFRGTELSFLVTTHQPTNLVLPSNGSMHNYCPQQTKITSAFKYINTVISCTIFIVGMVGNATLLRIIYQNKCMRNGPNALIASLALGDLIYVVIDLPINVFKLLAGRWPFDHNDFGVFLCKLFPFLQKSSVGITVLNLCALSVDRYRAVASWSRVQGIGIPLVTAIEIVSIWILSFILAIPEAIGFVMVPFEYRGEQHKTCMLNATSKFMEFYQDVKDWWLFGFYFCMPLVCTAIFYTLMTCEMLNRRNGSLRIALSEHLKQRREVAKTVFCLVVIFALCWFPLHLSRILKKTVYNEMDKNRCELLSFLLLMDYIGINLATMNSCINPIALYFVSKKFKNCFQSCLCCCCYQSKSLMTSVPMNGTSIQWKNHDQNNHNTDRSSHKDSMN
Procedure: I: Hemmung der Endothelin-Bindung am recombinanten ETA-Rezeptor
Baculovirus-infizierte Insektenzellen aus einem 23 l Fermenter werden 60 Stunden nach der Infektion abzentrifugiert (3 000 x g, 15 Minuten, 4°C), in Tris-Puffer (5 mM, pH 7.4, 1 mM MgCl2) resuspendiert und erneut zentrifugiert. Nach erneuter Resuspension und Zentrifugation werden die Zellen in 800 ml des gleichen Puffers suspendiert und bei -120°C eingefroren. Der Aufbruch der Zellen erfolgt beim Auftauen der Suspension in diesem hypotonen Puffergemisch. Nach wiederholtem Gefrier/Auftau-Zyklus wird die Suspension homogenisiert und zentrifugiert (25 000 x g, 15 Minuten, 4°C). Nach Suspension in Tris-Puffer (75 mM, pH 7.4, 25mM MgCl2, 250 mM Saccharose) werden 1 ml Aliquots (Proteingehalt ca. 3.5 mg/ml) bei -85°C aufbewahrt.
Für den Bindungs-Assay werden die eingefrorenen Membranpräparate aufgetaut und nach 10 Minuten Zentrifugieren mit 25000 g bei 20°C in Assay-Puffer (50 mM Tris-Puffer pH 7.4, enthaltend 25 mM MnCl2, 1 mM EDTA und 0,5% Rinderserumalbumin) resuspendiert. […] Die Inkubation wird 2 Stunden bei 20°C oder 24 Stunden bei 4°C durchgeführt. Die Trennung von freiem und Membran-gebundenen Radioliganden wird durch Filtration über Glasfaserfilter vorgenommen.

[2] = test system: isolierten Aortenringen der Ratte; experiment: Inhibition of endothelin-induced contractions in isolated rat aortic rings; format: cell-based, Wistar-Kyoto-Ratten; conditions: for Kb: Rattus norvegicus, 10 min, endothelium-denuded thoracic aorta rings, 10 min incubation with test compound, cumulative doses of Endothelin-1, text calls the values pA2 = log(DR-1)-log(antagonist concentration), read-out: Dosisverhältnis (Rechtsverschiebung) (converted)
Procedure: II. Hemmung Endothelin-induzierter Kontraktionen an isolierten Aortenringen der Ratte
Aus der Thoraxaorta von erwachsenen Wistar-Kyoto-Ratten wurden Ringe von 5 mm Länge herausgeschnitten. Das Endothel wurde durch leichtes Reiben der Innenfläche entfernt. Jeder Ring wurde bei 37°C in 10 ml Krebs-Henseleit-Lösung unter Begasung mit 95% O2 und 5% CO2 in ein isoliertes Bad eingetaucht. Die isometrische Spannung der Ringe wurde gemessen. Die Ringe wurden auf eine Vorspannung von 3 g gedehnt. Nach 10 Minuten Inkubation mit der Testverbindung oder Vehikel wurden kumulative Dosen von Endothelin-1 zugegeben. Die Aktivität der Testverbindung wurde ermittelt durch die zu beobachtende Rechtsverschiebung der Dosis-Wirkungskurve von Endothelin-1 in gegenwart verschiedener Konzentrationen an Antagonist. Diese Rechtsverschiebung (oder auch "dose ratio", DR) entspricht dabei dem Quotienten aus den EC50-Werten von Endothelin-1 in Gegenwart und in Abwesenheit von Antagonist, wobei der EC50-Wert die für eine halbmaximale Kontraktion erforderliche Endothelin-Konzentration bezeichnet.
Aus der "dose ratio" DR wurde mittels eines Computerprogramms für jede einzelne Dosis-Wirkungskurve der entsprechende PA2-Wert nach untenstehender Gleichung berechnet, welcher ein Mass für die Aktivität der Testverbindung darstellt. pA2 = log(DR-1)-log(Antagonist-Konzentration) [formula]
Die EC50 von Endothelin in Abwesenheit von Testverbindungen ist 0,3 nM.
Die mit Verbindungen der Formel I so erhaltenen Werte für pA2 sind in Tabelle 2 angegeben. Tabelle 2

Compound	pIC50 [1]	Kb [2] [nM]	pEC50 ([2]; endothelin concentration required for half-maximal contraction, without antagonist, read-out: EC50 von Endothelin in Abwesenheit von Testverbindungen)
COc1ccccc1Oc1c(NS(=O)(=O)c2ccc(C(C)C)cn2)nc(N2CCOCC2)nc1OCCOC(=O)Nc1ccccn1 [Beispiel 51, Pyridin-2-ylcarbaminsäure 2-[6-(5-isopropylpyridin-2-ylsulfonylamino)-5-(2-methoxy-phenoxy)-2-morpholin-4-yl-pyrimidin-4-yloxy]ethylester]	9.40	0.631	
Endothelin [reference compound]			9.52
COc1ccccc1Oc1c(NS(=O)(=O)c2ccc(C)cn2)nc(N2CCOCC2)nc1OCCOC(=O)Nc1ccccn1 [Beispiel 34, Pyridin-2-yl-carbaminsäure 2-[5-(2-methoxy-phenoxy)-6-(5-methyl-pyridin-2-ylsulfonylamino)-2-morpholin-4-yl-pyrimidin-4-yloxy]-ethylester]	9.52	0.2	
